Test results published in patent US8680153B2, “Method for correcting a lipid imbalance in a subject” (The Royal Institution for the Advancement of …, priority 2005, dated 2014).

Columns and labels:
Type in all cases: in vivo
[1] = system: Cftr-KO mice; assay: μCT of trabecular bone (femur), biweekly treatment for 4 weeks
Description: (§1) Fenretinide Diet Supplementation. Examples 2 to 6: fenretinide (Sigma-Aldrich, Oakville, ON) powder was resuspended in 95% ethanol and subsequently incorporated in the Peptamen liquid diet. It was protected from light and kept at 4° C. before being given to the mice (5 mg/kg per day per mouse). Mock-treated diets were prepared similarly by adding ethanol to the Peptamen diet but omitting the fenretinide supplementation. The diet was given every morning for 28 consecutive days with specific monitoring of the quantity consumed by the mice in each cage. Examples 7 to 12: fenretinide powder was kindly provided by Dr. Robert Smith (NIH; Bethesda, Md., USA). Fenretinide was resuspended in 95% ethanol to make a 2 μg/μL concentration. Approximately 40 μL of this preparation was incorporated into the Peptamen liquid diet (5 mg/kg per day per mouse). The prepared food containing fenretinide was then stored in the dark at 4° C. for no more than 3 hours prior to being administered to the mice. To ensure that the entire drug dose was consumed, the mice were given 10 mL of fenretinide-treated Peptamen, which represents ⅔ of the daily mouse food consumption, in the late afternoon. The remaining 5 mL of Peptamen (without fenretinide) was given the following morning. Mice were treated twice a week for 4 weeks. During the treatment period each mouse was kept in a separate cage (including WT mice) and was monitored to ensure that the entire amount of Peptamen containing the fenretinide or with out was consumed. The diet for the mock-treated control group was prepared and administered similarly to that described above, by adding the same volume of ethanol to the Peptamen diet but omitting the fenretinide supplementation.
μ-CT. Mice were sacrificed by CO2 and exsanguinated by cardiac puncture. Femurs, tibiae and vertebrae were extracted, stripped of soft tissue and fixed in 4% paraformaldehyde overnight. Micro Computed Tomography (μCT) was performed on the left femur after overnight fixation. The distal metaphysis was scanned with a Skyscan 1072 μCT instrument (Skyscan, Antwerp, Belgium). Image acquisition was performed at 100 kV and 98 μA, with a 0.9° rotation between frames. The two-dimensional images were used to generate three-dimensional reconstructions to obtain quantitative data using the 3D Creator software supplied with the instrument (ANT 3D Creator software, Skyscan, Antwerp, Belgium).
Histological analysis. Mice were given an intra-peritoneal injection of 30 mg/kg calcein at 7 days and 2 days prior to sacrifice to label actively mineralizing surfaces. After overnight fixation in 4% paraformaldehyde and rinsing in phosphate buffered saline (PBS), right femurs and tibiae were embedded in polymethylmethacrylate (MMA) or a mixture of 50% MMA and 50% glycolmethacrylate (GMA). Serial 4- to 6-μm sections were cut on a modified Leica RM 2155 rotary microtome (Leica Microsystems, Richmond Hill, Ontario, Canada). MMA-embedded tissues were stained with von Kossa and toluidine blue, while 4 μm MMA-GMA sections were stained with tartrate-resistant acidic phosphatase (TRAP) and alkaline phosphate (ALP) activity. Images were captured using a Leica DMR microscope (Leica Microsystems) equipped with a Retiga 1300 camera (Qimaging, Burnaby, British Columbia, Canada). The left femur and tibia and the lumbar vertebrae were decalcified with 4% EDTA for paraffin embedding after 14 days. Serial 5 μm sections were cut and stained with hematoxylin and esosin (H&E). Osteoblasts were defined as a single-nucleated, rod shaped cells and were identified along the surface of the trabecular lamellae. Osteoclasts were defined as multi-nucleated cells that are much larger then osteoblasts and display typical macrophage morphology.

[2] = system: ceramide levels; assay: Ceramide levels by ELISA in lung and plasma of P. aeruginosa-infected mice
Description: as §1, with “The remaining 5 mL of Peptamen (without fenretinide) was given the following morning. Mice were treated twice a week for 4 weeks.” left out, “The diet for the mock-treated control group was prepared and administered similarly to that described above, by adding the same volume of ethanol to the Peptamen diet but omitting the fenretinide supplementation.” left out

[3] = system: ceramide levels; assay: Plasma ceramide levels, biweekly treatment for 4 weeks; details: Cftr-KO mice, 4 weeks of biweekly treatment, p<0.05
Description: Fenretinide Diet Supplementation. Examples 2 to 6: fenretinide (Sigma-Aldrich, Oakville, ON) powder was resuspended in 95% ethanol and subsequently incorporated in the Peptamen liquid diet. It was protected from light and kept at 4° C. before being given to the mice (5 mg/kg per day per mouse). Mock-treated diets were prepared similarly by adding ethanol to the Peptamen diet but omitting the fenretinide supplementation. The diet was given every morning for 28 consecutive days with specific monitoring of the quantity consumed by the mice in each cage. Examples 7 to 12: fenretinide powder was kindly provided by Dr. Robert Smith (NIH; Bethesda, Md., USA). Fenretinide was resuspended in 95% ethanol to make a 2 μg/μL concentration. Approximately 40 μL of this preparation was incorporated into the Peptamen liquid diet (5 mg/kg per day per mouse). […] During the treatment period each mouse was kept in a separate cage (including WT mice) and was monitored to ensure that the entire amount of Peptamen containing the fenretinide or with out was consumed. […]
Ceramide/Sphingolipids analysis. The concentration of ceramide in the (lung, liver, ileum, pancreas homogenates) and plasma from mice and humans were determined by ELISA^39;40 on separated lipids samples by thin layer chromatography, as described above. […]

[4] = Cftr-KO mice, left femur, 8 doses over 4 weeks

CC1=C(/C=C/C(C)=C/C=C/C(C)=C/C(=O)Nc2ccc(O)cc2)C(C)(C)CCC1 [fenretinide, all-trans-N-(4-hydroxyphenyl) retinamide]
Signs of osteoporosis in the trabecular bone (μCT) ([1]; Cftr-KO mice, biweekly treatment over four weeks (total 8 doses)): completely eliminate any signs of osteoporosis
Bone number (BN), increase vs Cftr-KO not treated [1, 4]: 2.4 fold
Bone volume (BV), increase vs Cftr-KO not treated [1, 4]: 3.1 fold
Bone volume/tissue volume (BV/TV), increase vs untreated Cftr-KO [1, 4]: 2.7 fold
Structural model index (SMI), treated WT vs treated Cftr-KO ([1]; left femur, fenretinide-treated mice): no significant (p=0.320) difference
Trabecular separation, treated WT vs treated Cftr-KO ([1]; left femur, fenretinide-treated mice, p=0.548): no longer a significant difference
Increase in ceramide levels vs mock-treated controls ([2]; P. aeruginosa-infected Cftr-KO mice): approximately 7 fold
Increase in ceramide levels vs untreated counterparts ([2]; P. aeruginosa-infected WT mice): approx. 2 fold
Ceramide levels, increase vs untreated Cftr-KO [3]: 5.9 fold
